Our source for the Ki, inhibition and IC50 values is ChEMBL document CHEMBL1130679, “Novel phosphate mimetics for the design of non-peptidyl inhibitors of protein tyrosine phosphatases” (Bioorg Med Chem Lett, 1998).

The target in the first assay is T1, Tyrosine-protein phosphatase non-receptor type 1 (Homo sapiens, UniProt P18031).
T1 sequence (P18031 whole entry): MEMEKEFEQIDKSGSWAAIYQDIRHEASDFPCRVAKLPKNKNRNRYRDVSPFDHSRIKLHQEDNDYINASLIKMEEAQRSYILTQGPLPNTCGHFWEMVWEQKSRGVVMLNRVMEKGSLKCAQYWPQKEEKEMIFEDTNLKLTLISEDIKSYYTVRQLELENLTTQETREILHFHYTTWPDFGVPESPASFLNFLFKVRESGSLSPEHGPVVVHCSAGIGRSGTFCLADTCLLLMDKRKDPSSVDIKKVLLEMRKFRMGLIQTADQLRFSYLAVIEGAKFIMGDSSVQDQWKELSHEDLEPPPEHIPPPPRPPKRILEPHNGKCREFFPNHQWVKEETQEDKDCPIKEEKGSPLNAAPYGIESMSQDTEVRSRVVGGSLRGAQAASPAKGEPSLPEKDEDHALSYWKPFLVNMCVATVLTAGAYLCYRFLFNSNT
The experiment in a line: Binding affinity against Protein tyrosine phosphatase-1B (PTP1B).
One may read the Ki as the dissociation constant of the complex between target and ligand, obtained from inhibition or displacement. Take `FC(F)(c1cccc(-c2ccccc2)c1)c1nnn[nH]1`: the Ki is 98 µM.
`O=S(=O)(O)C(F)(F)c1cccc(-c2ccccc2)c1` returned a Ki of 49 µM.

In a further assay the target is T2, Tyrosine-protein phosphatase non-receptor type 1 (Homo sapiens) (UniProt P18031).
T2 sequence (whole entry): T1 sequence (P18031 whole entry)
Kind of assay: Inhibitory activity against protein tyrosine phosphatase 1B (PTP1B) at 500 uM conc. using fluorescein diphosphate as substrate at Km concentration (20 uM).
The term inhibition denotes the percentage by which the read-out fell short of the control. The low end stands for little suppression, the high end for strong suppression. `c1ccc(-c2cccc(Cc3nnn[nH]3)c2)cc1` yielded an inhibition of 15%.
For the compound `O=P(O)(O)Cc1cccc(-c2ccccc2)c1`, the inhibition is 17%.
`O=C(O)Cc1cccc(-c2ccccc2)c1` returned an inhibition of 10%.
On the same count and under the same terms, to `O=C(O)Cc1ccc2ccccc2c1` belongs 4%; to `c1ccc2cc(Cc3nnn[nH]3)ccc2c1`, 12%; to `O=S(=O)(O)Cc1ccc2ccccc2c1`, 5%.
Still for that read-out and setting: with `O=P(O)(O)Cc1ccc2ccccc2c1` the figure was 9%.
Turning to `O=S(=O)(O)Cc1cccc(-c2ccccc2)c1`, the inhibition was 10%.

Another assay concerns the target T1, Tyrosine-protein phosphatase non-receptor type 1. Kind of assay: Inhibitory activity against protein tyrosine phosphatase 1B (PTP1B) using fluorescein diphosphate as substrate at Km concentration (20 uM).
Broadly, the IC50 is the midpoint of a concentration-inhibition curve. High values mean lower potency, low ones higher potency. `O=C(O)C(F)(F)c1cccc(-c2ccccc2)c1`: the IC50 was 435 µM.
Still for that read-out and setting: to `O=C(O)C(F)(F)c1ccc2ccccc2c1` belongs 640 µM; to `O=C(O)C(F)(Oc1ccc2ccccc2c1)C(=O)O`, 320 µM; to `O=C(O)C(F)(Oc1cccc(-c2ccccc2)c1)C(=O)O`, 250 µM.
`FC(F)(c1ccc2ccccc2c1)c1nnn[nH]1` had an IC50 of 230 µM.
Same read-out and setting: with `O=S(=O)(O)C(F)(F)c1ccc2ccccc2c1` the figure was 175 µM; with `FC(F)(c1cccc(-c2ccccc2)c1)c1nnn[nH]1`, 195 µM.
On the same count and under the same terms, to `O=P(O)(O)OC(F)(F)c1ccc2ccccc2c1` belongs 35 µM; to `O=S(=O)(O)C(F)(F)c1cccc(-c2ccccc2)c1`, 115 µM.

The target is the same in the next assay. The experiment in a line: Inhibitory activity against PTP1B as a model Protein tyrosine […] (PTP) using fluorescein diphosphate as substrate at Km concentration (20 uM) at th.
In turn, `O=P(O)(O)OC(F)(F)c1cccc(-c2ccccc2)c1` gave an IC50 of 15 µM.
